ChEMBL document CHEMBL1201862, “PubChem BioAssay data set” (2004)
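Cells were grown in 96-well plates and exposed to each compound for 48 hours at five concentrations; endpoints were interpolated linearly between bracketing concentrations, or set to the highest concentration if not reached. Here, GI50 denotes the concentration required for 50% inhibition of growth.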 Activity calls are given as the source filed them. Cut-off read from the data, not from the text of the source: active = GI50 up to about 1.1 µM and inactive = higher.

Assays:
Test in all cases: inhibition of tumour cell growth, NCI panel, 48 h
MDA-N = test system: MDA-N
SNB-75 = test system: SNB-75
OVCAR-3 = test system: OVCAR-3
HL-60 = test system: HL-60
RXF 393 = test system: RXF 393
SF-268 = test system: SF-268
TK-10 = test system: TK-10
SR = test system: SR
HOP-92 = test system: HOP-92
SF-539 = test system: SF-539
Hs-578T = test system: Hs-578T
SN12C = test system: SN12C
ACHN = test system: ACHN
K562 = test system: K562
HCT-116 = test system: HCT-116
A549 = test system: A549
A498 = test system: A498
SK-MEL-2 = test system: SK-MEL-2
SK-OV-3 = test system: SK-OV-3
M14 = test system: M14

Measured: GI50

COCCN(C(C)=O)C1CCC2(SCCS2)c2[nH]c3ccccc3c21 (stereo not drawn)
inactive: MDA-N > 100 µM | SNB-75 > 100 µM | OVCAR-3 > 100 µM | HL-60 > 100 µM | RXF 393 > 100 µM | SF-268 > 100 µM | TK-10 > 100 µM | SR 42.5 µM | HOP-92 70.3 µM | SF-539 > 100 µM | Hs-578T > 100 µM | SN12C > 100 µM | ACHN > 100 µM | K562 > 100 µM | HCT-116 > 100 µM | A549 > 100 µM | A498 > 100 µM

CCOC(=O)c1cc(C(O)P2(=O)N(CC(C)(C)C)[C@@H]3CCCC[C@H]3N2CC(C)(C)C)cn1C(=O)OC(C)(C)C (stereo partly drawn)
inactive: MDA-N 14.8 µM | SK-MEL-2 17.7 µM | OVCAR-3 12.3 µM | SK-OV-3 20 µM | HL-60 24.5 µM | RXF 393 12 µM | SF-268 15.8 µM | TK-10 22.6 µM | SR 10.2 µM | Hs-578T 16.9 µM | SN12C 13.3 µM | ACHN 28.1 µM | K562 20.1 µM | HCT-116 11.2 µM | A549 15.7 µM | M14 16.2 µM | A498 23.9 µM

CN(C)Cc1cc(C(C)(C)C)cc(CNC2CCCCC2)c1O
inactive: MDA-N 83.8 µM | SK-MEL-2 > 100 µM | SNB-75 52.4 µM | OVCAR-3 29.9 µM | SK-OV-3 30.7 µM | RXF 393 29.2 µM | SF-268 18.7 µM | TK-10 27.7 µM | SR 19.7 µM | HOP-92 19.5 µM | SF-539 17.7 µM | Hs-578T 61.2 µM | SN12C 35.6 µM | ACHN 42.9 µM | K562 22.1 µM | HCT-116 25.4 µM | A549 29.6 µM | M14 16.1 µM | A498 27.9 µM

COc1ccc(C2OCCN2C)cc1 (stereo not drawn)
inactive: MDA-N > 100 µM | SK-MEL-2 > 100 µM | SNB-75 36.9 µM | OVCAR-3 > 100 µM | SK-OV-3 > 100 µM | RXF 393 > 100 µM | SF-268 > 100 µM | TK-10 > 100 µM | SR > 100 µM | HOP-92 > 100 µM | SF-539 > 100 µM | Hs-578T > 100 µM | ACHN > 100 µM | K562 > 100 µM | HCT-116 > 100 µM | A549 > 100 µM | M14 > 100 µM | A498 > 100 µM

O=c1c2cc(Cl)cc(Cl)c2oc2nc3n(c(=O)c12)CCCS3
inactive: MDA-N > 100 µM | SK-MEL-2 > 100 µM | SNB-75 > 100 µM | OVCAR-3 95.9 µM | SK-OV-3 > 100 µM | RXF 393 > 100 µM | SF-268 > 100 µM | TK-10 > 100 µM | SR > 100 µM | HOP-92 > 100 µM | SF-539 > 100 µM | Hs-578T > 100 µM | SN12C > 100 µM | ACHN > 100 µM | K562 76 µM | HCT-116 > 100 µM | A549 > 100 µM | M14 > 100 µM | A498 > 100 µM

O=C(O)CC[P+](c1ccccc1)(c1ccccc1)c1ccccc1
inactive: MDA-N 20.4 µM | SK-MEL-2 21.6 µM | SNB-75 28.4 µM | OVCAR-3 13.5 µM | SK-OV-3 88.5 µM | HL-60 11.5 µM | RXF 393 > 100 µM | SF-268 31.3 µM | TK-10 > 100 µM | SR 50.4 µM | Hs-578T 48.3 µM | SN12C 16.9 µM | ACHN > 100 µM | K562 11.7 µM | HCT-116 21.3 µM | A549 45.4 µM | M14 23.1 µM | A498 42.9 µM

CC(=O)OC1(C)C(=O)OC/C2=C/CN(C)CCC(OC(=O)C(O)(C(C)Cl)CC1C)C2=O.c1ccccc1 (stereo not drawn)
inactive: MDA-N > 100 µM | SK-MEL-2 > 100 µM | SNB-75 > 100 µM | OVCAR-3 > 100 µM | SK-OV-3 > 100 µM | HL-60 > 100 µM | SF-268 > 100 µM | TK-10 > 100 µM | SR > 100 µM | HOP-92 > 100 µM | SF-539 > 100 µM | Hs-578T > 100 µM | SN12C > 100 µM | ACHN > 100 µM | K562 > 100 µM | HCT-116 > 100 µM | A549 > 100 µM | M14 > 100 µM | A498 > 100 µM

N=C(CC/C(N)=N/O)NO
inactive: MDA-N > 100 µM | SK-MEL-2 > 100 µM | SNB-75 > 100 µM | OVCAR-3 > 100 µM | RXF 393 > 100 µM | SF-268 > 100 µM | TK-10 > 100 µM | SR > 100 µM | HOP-92 > 100 µM | Hs-578T > 100 µM | SN12C > 100 µM | ACHN > 100 µM | K562 > 100 µM | HCT-116 > 100 µM | A549 > 100 µM | M14 38.7 µM | A498 > 100 µM

[O-][S+](c1ccccc1)C1CC2CC3(CCC21O)OCCO3 (stereo not drawn)
inactive: MDA-N > 100 µM | SK-MEL-2 > 100 µM | SNB-75 > 100 µM | OVCAR-3 > 100 µM | SK-OV-3 > 100 µM | HL-60 > 100 µM | RXF 393 > 100 µM | SF-268 > 100 µM | TK-10 > 100 µM | SR > 100 µM | HOP-92 > 100 µM | Hs-578T > 100 µM | ACHN > 100 µM | K562 > 100 µM | A549 > 100 µM | M14 > 100 µM | A498 > 100 µM

COc1cc([C@@H]2c3cc4c(cc3[C@@H](c3c(O)cc(O)c5c3O[C@H](c3ccc(O)c(O)c3)[C@H](OC(=O)c3cc(O)c(O)c(O)c3)C5)[C@H]3COC(=O)[C@H]23)OCO4)cc(OC)c1OC
inactive: MDA-N 3.07 µM | SK-MEL-2 11.7 µM | SNB-75 3.47 µM | OVCAR-3 4.01 µM | SK-OV-3 9.46 µM | RXF 393 4.67 µM | SF-268 5.79 µM | TK-10 > 100 µM | SR 2.69 µM | HOP-92 > 100 µM | SF-539 4.22 µM | Hs-578T 4.07 µM | SN12C 12.9 µM | ACHN 1.33 µM | K562 4.78 µM | HCT-116 5 µM | A549 11.9 µM | M14 9.93 µM | A498 3.74 µM

C[C@]12CC[C@@H]3c4ccc(OC(=O)c5ccccc5)cc4CC[C@H]3[C@@H]1CC[C@@H]2Oc1c2ccccc2nc2ccccc12
inactive: MDA-N 3.53 µM | SK-MEL-2 16.2 µM | SNB-75 10 µM | OVCAR-3 7.66 µM | SK-OV-3 20.7 µM | HL-60 2.95 µM | RXF 393 8.09 µM | SF-268 3.93 µM | TK-10 17.2 µM | SR 10 µM | HOP-92 12.9 µM | Hs-578T 5.5 µM | ACHN 37 µM | K562 6.38 µM | HCT-116 7.8 µM | A549 6.62 µM | M14 7.43 µM | A498 17.4 µM
